The values that follow come from US9718828B2 (MERCK SHARP & DOHME CORP., priority 2011, dated 2017).

Counter-ions that a name gives are not always drawn.

In the first experiment the target is Btk enzyme (His-Btk) (Homo sapiens (Human), UniProt Q06187). As to the kind of experiment: Btk enzyme activity, IMAP fluorescence polarization assay (Assay Method A).
Sequence of Btk enzyme (His-Btk) (Q06187 whole entry): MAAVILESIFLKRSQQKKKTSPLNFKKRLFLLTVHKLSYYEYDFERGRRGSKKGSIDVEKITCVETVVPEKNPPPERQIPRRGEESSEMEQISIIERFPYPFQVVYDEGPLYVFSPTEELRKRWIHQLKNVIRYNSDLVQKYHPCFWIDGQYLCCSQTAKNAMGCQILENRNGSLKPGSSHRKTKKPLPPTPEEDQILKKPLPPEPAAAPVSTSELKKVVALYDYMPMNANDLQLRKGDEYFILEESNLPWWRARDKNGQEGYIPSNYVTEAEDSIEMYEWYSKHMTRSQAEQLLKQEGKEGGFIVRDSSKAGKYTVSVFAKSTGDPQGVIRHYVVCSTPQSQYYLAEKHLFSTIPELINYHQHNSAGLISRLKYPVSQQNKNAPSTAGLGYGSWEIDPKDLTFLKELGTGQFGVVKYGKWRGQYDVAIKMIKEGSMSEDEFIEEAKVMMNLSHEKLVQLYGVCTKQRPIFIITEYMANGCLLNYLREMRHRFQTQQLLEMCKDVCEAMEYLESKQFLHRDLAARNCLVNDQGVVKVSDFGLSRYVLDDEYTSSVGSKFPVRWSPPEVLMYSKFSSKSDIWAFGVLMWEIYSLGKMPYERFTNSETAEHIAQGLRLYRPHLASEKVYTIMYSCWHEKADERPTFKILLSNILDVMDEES
Settings: not given
(Fluorescence polarisation rises when a labelled molecule tumbles more slowly, as on binding a larger partner.)
For orientation: EC50 means the concentration that produces a half-maximal response. `CCC(=O)N1CCC[C@@H](c2nc(-c3ccc(C(=O)Nc4cc(C#N)ccn4)cc3)c3c(N)nccn23)C1` [Example 96, (R)-4-(8-amino-3-(1-propionylpiperidin-3-yl)imidazo[1,5-a]pyrazin-1-yl)-N-(4-cyanopyridin-2-yl)benzamide]: the concentration giving a half-maximal response (EC50) is < 10 nM. Compound `Nc1nccn2c1c(-c1ccc(C(=O)Nc3cc(N4CCCC4)ccn3)cc1)nc2[C@H]1CC[C@H](O)CC1` [Example 21, 4-(8-amino-3-((trans)-4-hydroxycyclohexyl)imidazo[1,5-a]pyrazin-1-yl)-N-(4-(pyrrolidin-1-yl)pyridin-2-yl)benzamide] showed a concentration giving a half-maximal response (EC50) of 10 to 100 nM. Same read-out and setting: in the case of `CC(C)(F)C(=O)N1CCC[C@@H](c2nc(-c3ccc(C(=O)Nc4cc(C5CC5)ccn4)cc3)c3c(N)nccn23)C1` [Example 64, (R)-4-(8-amino-3-(1-(2-fluoro-2-methylpropanoyl)piperidin-3-yl)imidazo[1,5-a]pyrazin-1-yl)-N-(4-cyclopropylpyridin-2-yl)benzamide] it was < 10 nM; in that of `Nc1nccn2c1c(-c1ccc(C(=O)Nc3ccccn3)c(Cl)c1)nc2[C@H]1CC[C@H](O)CC1` [Example 23, 4-(8-amino-3-((trans)-4-hydroxycyclohexyl)imidazo[1,5-a]pyrazin-1-yl)-2-chloro-N-(pyridin-2-yl)benzamide], 10 to 100 nM.

As to `Cc1noc(C)c1C(=O)N1CCC[C@@H](c2nc(-c3ccc(C(=O)Nc4cc(C(F)(F)F)ccn4)cc3)c3c(N)nccn23)C1` [Example 74, (R)-4-(8-amino-3-(1-(3,5-dimethylisoxazole-4-carbonyl)piperidin-3 yl)imidazo[1,5-a]pyrazin-1-yl)-N-(4-(trifluoromethyl)pyridin-2-yl)benzamide], the half-maximal effective concentration (EC50) is < 10 nM. For `Nc1nccn2c([C@@H]3CCCN(C(=O)C45CC(C4)C5)C3)nc(-c3ccc(C(=O)Nc4cc(C(F)(F)F)ccn4)cc3)c12` [Example 90, (R)-4-(8-amino-3-(1-(bicyclo[1.1.1]pentane-1-carbonyl)piperidin-3-yl)imidazo[1,5-a]pyrazin-1-yl)-N-(4-(trifluoromethyl)pyridin-2-yl)benzamide], the EC50 was < 10 nM. In turn, `Nc1nccn2c([C@@H]3CCCN(C(=O)[C@H]4CC[C@H](N)CC4)C3)nc(-c3ccc(C(=O)Nc4ccccn4)cc3)c12` [Example 55, 4-(8-amino-3-((R)-1-((trans)-4-aminocyclohexanecarbonyl)piperidin-3-yl)imidazo[1,5-a]pyrazin-1-yl)-N-(pyridin-2-yl)benzamide, TFA salt] showed an EC50 of 10 to 100 nM. The same measure, in the same setting: the same measure for `Cc1nc(-c2ccc(C(=O)Nc3cc(C(F)(F)F)ccn3)cc2)c2c(N)ncc(C(=O)NCc3ccccc3)n12` [Example 292, 8-amino-N-benzyl-3-methyl-1-(4-(4-(trifluoromethyl)pyridin-2-ylcarbamoyl)phenyl)imidazo[1,5-a]pyrazine-5-carboxamide]: 100 to 1000 nM; for `Cc1cc(C(=O)Nc2ccccn2)ccc1-c1nc([C@H]2CC[C@H](O)CC2)n2ccnc(N)c12` [Example 16]: 100 to 1000 nM; for `CC1(C(=O)N2CCC[C@@H](c3nc(-c4ccc(C(=O)Nc5cc(C#N)ccn5)cc4)c4c(N)nccn34)C2)COC1` [Example 99, (R)-4-(8-amino-3-(1-(3-methyloxetane-3 carbonyl)piperidin-3-yl)imidazo[1,5-a]pyrazin-1-yl)-N-(4-cyanopyridin-2-yl)benzamide]: < 10 nM. As for `CC(C)(C)C(=O)N1CCC[C@@H](c2nc(-c3ccc(C(=O)Nc4cc(C(F)(F)F)ccn4)cc3)c3c(N)nccn23)C1` [Example 76, (R)-4-(8-amino-3-(1-pivaloylpiperidin-3-yl)imidazo[1,5-a]pyrazin-1-yl)-N-(4-(trifluoromethyl)pyridin-2-yl)benzamide], the EC50 was < 10 nM. The same measure, in the same setting: the same measure for `CC1(C(=O)N2CCC[C@@H](c3nc(-c4ccc(C(=O)Nc5cc(C(F)(F)F)ccn5)cc4)c4c(N)ncnn34)C2)CCC1` [Example 254, (R)-4-(4-amino-7-(1-(1-methylcyclobutanecarbonyl)piperidin-3-yl)imidazo[1,5-f][1,2,4]triazin-5-yl)-N-(4-(trifluoromethyl)pyridin-2-yl)benzamide]: < 10 nM. The compound `Cc1nc(-c2ccc(C(=O)Nc3cc(C(F)(F)F)ccn3)cc2)c2c(N)ncc(C(=O)NCc3cnco3)n12` [Example 297, 8-amino-3-methyl-N-(oxazol-5-ylmethyl)-1-(4-(4-(trifluoromethyl)pyridin-2-ylcarbamoyl)phenyl)imidazo[1,5-a]pyrazine-5-carboxamide] displayed a 50% effective concentration (EC50) of 100 to 1000 nM. As for `Nc1nccn2c1c(-c1ccc(C(=O)Nc3ccccn3)c(F)c1)nc2[C@H]1CC[C@H](O)CC1` [Example 12, 4-(8-amino-3-((trans)-4-hydroxycyclohexyl)imidazo[1,5-a]pyrazin-1-yl)-2-fluoro-N-(pyridin-2-yl)benzamide], the EC50 is 100 to 1000 nM.

In turn, `COCc1n[nH]c2c1CC(c1nc(-c3ccc(C(=O)Nc4cc(C(F)(F)F)ccn4)cc3)c3c(N)nccn13)CC2` (stereo not shown) [Example 250, 4-(8-amino-3-(3-(methoxymethyl)-4,5,6,7-tetrahydro-1H-indazol-5-yl)imidazo[1,5-a]pyrazin-1-yl)-N-(4-(trifluoromethyl)pyridin-2-yl)benzamide] registered a concentration for a half-maximal effect (EC50) of 10 to 100 nM.

Take `Nc1nccn2c([C@@H]3CCCN(C(=O)C4(O)CC4)C3)nc(-c3ccc(C(=O)Nc4ccccn4)cc3)c12` [Example 94, (R)-4-(8-amino-3-(1-(1-hydroxycyclopropanecarbonyl)piperidin-3-yl)imidazo[1,5-a]pyrazin-1-yl)-N-(pyridin-2-yl)benzamide]: the concentration giving a half-maximal response (EC50) is 10 to 100 nM.

The experiment is the same for the next values; noted with them: read-out: EC50 Btk activity values - Assay Method A; IMAP-FP, 60 min pre-incubation, 5 μM ATP; class 100-1000 is given as ≧100 nM-<1 μM.
Consider `Nc1nccn2c1c(-c1ccc(C(=O)Nc3cc(C4CC4)ccn3)cc1)nc2[C@H]1CC[C@H](O)CC1` [Example 7, 4-(8-amino-3-((trans)-4-hydroxycyclohexyl)imidazo[1,5-a]pyrazin-1-yl)-N-(4-cyclopropylpyridin-2-yl)benzamide], for which the EC50 is < 10 nM.

`Nc1nccn2c(N3CCCC(C(=O)N4CCOCC4)C3)nc(-c3ccc(C(=O)Nc4cc(C(F)(F)F)ccn4)cc3)c12` (stereo not shown) [Example 234, 4-(8-amino-3-(3-(morpholine-4-carbonyl)piperidin-1-yl)imidazo[1,5-a]pyrazin-1-yl)-N-(4-(trifluoromethyl)pyridin-2-yl)benzamide, TFA salt]: the EC50 was < 10 nM.

On to `CCC(=O)NCC(C)c1nc(-c2ccc(C(=O)Nc3cc(C(F)(F)F)ccn3)cc2)c2c(N)nccn12` (stereo not shown) [Example 130, 4-(8-amino-3-(1-propionamidopropan-2-yl)imidazo[1,5-a]pyrazin-1-yl)-N-(4-(trifluoromethyl)pyridin-2-yl)benzamide], for which the concentration for a half-maximal effect (EC50) was < 10 nM.

Consider `CONC(=O)C1CCCN(c2nc(-c3ccc(C(=O)Nc4cc(C5CC5)ccn4)cc3)c3c(N)nccn23)C1` (stereo not shown) [Example 244, 1-(8-amino-1-(4-(4-cyclopropylpyridin-2-ylcarbamoyl)phenyl)imidazo[1,5-a]pyrazin-3-yl)-N-methoxypiperidine-3-carboxamide, TFA salt], for which the EC50 is < 10 nM. For `COC[C@H](C)NC(=O)C1CCCN(c2nc(-c3ccc(C(=O)Nc4ccccn4)cc3)c3c(N)nccn23)C1` (stereo partly drawn) [Example 235, 1-(8-amino-1-(4-(pyridin-2-ylcarbamoyl)phenyl)imidazo[1,5-a]pyrazin-3-yl)-N-((S)-1-methoxypropan-2-yl)piperidine-3-carboxamide, TFA salt], the EC50 was < 10 nM. On the same count and under the same terms, in the case of `Nc1ncnc2c1c(-c1ccc(C(=O)Nc3cc(C(F)(F)F)ccn3)cc1)nn2[C@@H]1CCCN(C(=O)C2CC2)C1` [Example 269, (R)-4-(4-amino-1-(1-(cyclopropanecarbonyl)piperidin-3-yl)-1H-pyrazolo[3,4-d]pyrimidin-3-yl)-N-(4-(trifluoromethyl)pyridin-2-yl)benzamide] it was < 10 nM; in that of `CCC(=O)N[C@H]1CCC[C@@H](c2nc(-c3ccc(C(=O)Nc4cc(C(F)(F)F)ccn4)cc3)c3c(N)nccn23)C1` (relative stereo) [Example 161, 4-(8-amino-3-((cis)-3-propionamidocyclohexyl)imidazo[1,5-a]pyrazin-1-yl)-N-(4-(trifluoromethyl)pyridin-2-yl)benzamide], < 10 nM; in that of `CC1(C)CC(c2nc(-c3ccc(C(=O)Nc4cc(C(F)(F)F)ccn4)cc3)c3c(N)nccn23)CCO1` (stereo not shown) [Example 34, 4-(8-amino-3-(2,2-dimethyltetrahydro-2H-pyran-4-yl)imidazo[1,5-a]pyrazin-1-yl)-N-(4-(trifluoromethyl)pyridin-2-yl)benzamide], < 10 nM. `CCC(=O)N1CCC[C@@H](n2nc(-c3ccc(C(=O)Nc4cc(C(F)(F)F)ccn4)cc3)c3c(N)ncnc32)C1` [Example 271, (R)-4-(4-amino-1-(1-propionylpiperidin-3-yl)-1H-pyrazolo[3,4-d]pyrimidin-3-yl)-N-(4-(trifluoromethyl)pyridin-2-yl)benzamide]: the EC50 is < 10 nM.

For the compound `CCC(=O)N[C@@H]1CCC[C@@H](c2nc(-c3ccc(C(=O)Nc4cc(C(F)(F)F)ccn4)cc3)c3c(N)nccn23)C1` (relative stereo) [Example 170, 4-(8-amino-3-((trans)-3-propionamidocyclohexyl)imidazo [1,5-a]pyrazin-1-yl)-N-(4-(trifluoromethyl)pyridin-2-yl)benzamide], the EC50 was < 10 nM. Take `Nc1ncnc2c1c(-c1ccc(C(=O)Nc3cc(C(F)(F)F)ccn3)cc1)nn2[C@@H]1CCCN(C(=O)C2CC(F)(F)C2)C1` [Example 278, (R)-4-(4-amino-1-(1-(3,3-difluorocyclobutanecarbonyl)piperidin-3-yl)-1H-pyrazolo[3,4-d]pyrimidin-3-yl)-N-(4-(trifluoromethyl)pyridin-2-yl)benzamide]: the 50% effective concentration (EC50) was < 10 nM. For `CCNC(=O)N1CCOC(c2nc(-c3ccc(C(=O)Nc4cc(C(F)(F)F)ccn4)cc3)c3c(N)nccn23)C1` (stereo not shown) [Example 178, 2-(8-amino-1-(4-(4-(trifluoromethyl)pyridin-2-ylcarbamoyl)phenyl)imidazo [1,5-a]pyrazin-3-yl)-N-ethylmorpholine-4-carboxamide], the concentration giving a half-maximal response (EC50) was < 10 nM.
